Reference: ChEMBL document CHEMBL4350986, “Triptolide: Medicinal chemistry, chemical biology and clinical progress” (Eur J Med Chem, 2019)
In brackets after ≈: the same amount, converted by molar mass.

Columns and labels:
HCT-116 = test: Cytotoxicity against human HCT116 cells assessed as decrease in cell viability; format: functional, cell-based
[1] = Cytotoxicity against human SK-MEL-8 cells assessed as decrease in cell viability; format: functional, cell-based
[2] = Cytotoxicity against human Re-01 cells assessed as decrease in cell viability; format: functional, cell-based
NIH3T3 = test: Cytotoxicity against mouse NIH/3T3 cells assessed as decrease in cell viability; format: functional, cell-based
HeLa [3] = test: Cytotoxicity against human HeLa cells assessed as decrease in cell viability; format: functional, cell-based
[4] = Cytotoxicity against human Col-06 cells assessed as decrease in cell viability; format: functional, cell-based
MDCK = test: Cytotoxicity against MDCK cells assessed as decrease in cell viability; format: functional, cell-based; settings: Canis lupus familiaris
Jurkat = test: Cytotoxicity against human Jurkat cells assessed as decrease in cell viability; format: functional, cell-based
[5] = Cytotoxicity against human OVCAR1 cells assessed as decrease in cell viability; format: functional, cell-based
[6] = Cytotoxicity against human Bre01 cells assessed as decrease in cell viability; format: functional, cell-based
HL-60 [7] = test: Cytotoxicity against human HL60 cells assessed as decrease in cell viability by MTT assay; format: functional, cell-based
MCF7 [8] = test: Cytotoxicity against human MCF7 cells assessed as decrease in cell viability by MTT assay; format: functional, cell-based
HL-60 [9] = test: Cytotoxicity against human HL60 cells assessed as decrease in cell viability after 72 hrs by MTT assay; format: functional, cell-based; settings: HL-60, 72 h
BGC-823 = test: Cytotoxicity against human BGC823 cells assessed as decrease in cell viability by MTT assay; format: functional, cell-based
P388 = test: Cytotoxicity against mouse P388 cells assessed as decrease in cell viability after 72 hrs by MTT assay; format: functional, cell-based; settings: P388, 72 h
MKN-28 = test: Cytotoxicity against human MKN28 cells assessed as decrease in cell viability after 72 hrs by MTT assay; format: functional, cell-based; settings: MKN-28, 72 h
MCF7 [10] = test: Cytotoxicity against human MCF7 cells assessed as decrease in cell viability after 72 hrs by MTT assay; format: functional, cell-based; settings: MCF7, 72 h
HeLa [11] = test: Cytotoxicity against human HeLa cells assessed as decrease in cell viability by MTT assay; format: functional, cell-based
KB = test: Cytotoxicity against human KB cells assessed as decrease in cell viability by MTT assay; format: functional, cell-based
A549 = test: Cytotoxicity against human A549 cells assessed as decrease in cell viability after 72 hrs by MTT assay; format: functional, cell-based; settings: A549, 72 h
HL-60 [12] = test: Cytotoxicity against human HL60 cells assessed as decrease in cell viability; format: functional, cell-based
[13] = Toxicity in rat ear inflammation model; settings: in vivo
[14] = Half life of the compound; format: physicochemical

Molecule `CC(C)[C@]12O[C@H]1[C@@H]1O[C@]13[C@]1(O[C@H]1C[C@H]1C4=C(CC[C@@]13C)C(=O)OC4)[C@@H]2N` has an IC50 (HCT-116) of 772 nM.
In the case of `CC(C)[C@]12O[C@H]1[C@@H]1O[C@]13[C@]1(O[C@H]1C[C@H]1C4=C(CC[C@@]13C)C(=O)OC4)[C@@H]2NC=O`, the IC50 (HCT-116) is reported as 354 nM.
With `CCCNC(=O)OCCC[C@]12O[C@H]1[C@@H]1O[C@@]13[C@@]1(C)CCC4=C(COC4=O)[C@@H]1C[C@@H]1O[C@@]13C2=O` the IC50 (HCT-116) was 8.4 nM.
`CC(C)[C@]12O[C@H]1[C@@H]1O[C@]13[C@]1(O[C@H]1C[C@H]1C4=C(CC[C@@]13C)C(=O)OC4)[C@@H]2O` [TRIPTOLIDE] gave an IC50 [1] of 0.02 µg/mL (≈ 0.0555 µM), an IC50 [2] of 0.03 µg/mL (≈ 0.0832 µM) and an IC50 (NIH3T3) of 50 nM. It also gave an IC50 (HeLa [3]) of 87 nM, an IC50 [4] of 0.02 µg/mL (≈ 0.0555 µM) and an IC50 (HCT-116) of 4.7 nM. The IC50 (MDCK) was 1200 nM, the IC50 (Jurkat) was 140 nM and the IC50 [5] was 0.006 µg/mL (≈ 0.0166 µM). The IC50 [6] was 0.04 µg/mL (≈ 0.111 µM).
In the case of `C[C@]12CCC3=C(COC3=O)[C@@H]1C[C@@H]1O[C@@]13[C@@H](O)[C@@]1(CCO)O[C@H]1[C@@H]1O[C@@]132`, the IC50 (HCT-116) is reported as 70.7 nM.
Work on `CC(C)[C@]12O[C@H]1[C@@H]1O[C@]13[C@]1(O[C@H]1C[C@@]1(O)C4=C(CC[C@]31C)C(=O)OC4)[C@@H]2O` yielded an IC50 (HL-60 [7]) of 470 nM, an IC50 (MCF7 [8]) of 1050 nM and an IC50 (HL-60 [9]) of 0.04 to 0.2 nM. For the same molecule, the IC50 (BGC-823) was 1500 nM, the IC50 (P388) was 0.04 to 0.2 nM and the IC50 (MKN-28) was 0.04 to 0.2 nM. It also gave an IC50 (MCF7 [10]) of 0.04 to 0.2 nM, an IC50 (HeLa [11]) of 340 nM and an IC50 (KB) of 300 nM. The IC50 (A549) was 0.04 to 0.2 nM.
Molecule `CC(C)[C@]12O[C@H]1[C@@H]1O[C@@]13[C@@]1(C)[C@H](O)CC4=C(COC4=O)[C@@H]1C[C@@H]1O[C@@]13[C@@H]2O` has an IC50 (HL-60 [7]) of 70 nM, an IC50 (MCF7 [8]) of 870 nM and an IC50 (BGC-823) of 7650 nM. It also gave an IC50 (HeLa [11]) of 320 nM and an IC50 (KB) of 120 nM.
For `C[C@]12CCC3=C(COC3=O)[C@@H]1C[C@@H]1O[C@@]13C(=O)[C@H]1O[C@H]1[C@@H]1O[C@]123`, the IC50 (HCT-116) was 537 nM.
For `CC(C)[C@]12O[C@H]1[C@@H]1O[C@]13[C@]1(O[C@H]1C[C@H]1C4=C(CC[C@@]13C)C(=O)O[C@H]4O)[C@@H]2O`, the IC50 (HL-60 [7]) was 52600 nM and the IC50 (KB) was 46500 nM.
`C[C@@H]([C@@H]1CO1)[C@]12O[C@H]1[C@@H]1O[C@@]13[C@@]1(C)CCC4=C(COC4=O)[C@@H]1C[C@@H]1O[C@@]13C2=O` gave an IC50 (NIH3T3) of 40 nM.
With `CC(C)C1=C[C@H]2O[C@]23[C@@]2(C)CCC4=C(COC4=O)[C@@H]2C[C@@H]2O[C@@]23C1=O` the IC50 (Jurkat) was 16000 nM and the IC50 (HL-60 [12]) was 16000 nM.
`CC(C)[C@]1(O)[C@H](O)[C@@H]2O[C@]23[C@]2(O[C@H]2C[C@H]2C4=C(CC[C@@]23C)C(=O)OC4)[C@@H]1O` gave an LD50 [13] greater than 500 mg/kg.
Work on `CC(C)[C@]12O[C@H]1[C@@H]1O[C@]13[C@]1(O[C@H]1C[C@H]1C4=C(CC[C@@]13C)C(=O)OC4)[C@@H]2OCOP(=O)([O-])[O-].[Na+].[Na+]` [MINNELIDE] yielded a half-life [14] of 2 min.
Work on `CC(C)[C@]1(O)[C@H](N=C=S)[C@@H]2O[C@]23[C@]2(O[C@H]2C[C@H]2C4=C(CC[C@@]23C)C(=O)OC4)[C@@H]1O` yielded an IC50 [1] of 0.09 µg/mL (≈ 0.215 µM), an IC50 [2] of 0.06 µg/mL (≈ 0.143 µM) and an IC50 [4] of 0.03 µg/mL (≈ 0.0715 µM). It also gave an IC50 [5] of 0.02 µg/mL (≈ 0.0477 µM) and an IC50 [6] of 0.055 µg/mL (≈ 0.131 µM).
With `CC(C)C1=C[C@@H]2O[C@@]23[C@@]2(C)CCC4=C(COC4=O)[C@@H]2C[C@@H]2O[C@@]23C1=O` the IC50 (Jurkat) was 31000 nM and the IC50 (HL-60 [12]) was 16000 nM.
`C[C@]12CCC3=C(COC3=O)[C@@H]1C[C@@H]1O[C@@]13C(=O)[C@@]1(CCCC(=O)O)O[C@H]1[C@@H]1O[C@]123` gave an IC50 (HCT-116) of 560 nM.
In the case of `CC[C@@H](CO)[C@]12O[C@H]1[C@@H]1O[C@@]13[C@@]1(C)CCC4=C(COC4=O)[C@@H]1C[C@@H]1O[C@@]13C2=O`, the IC50 (NIH3T3) is reported as 10 nM, the IC50 (HeLa [3]) is reported as 2 nM and the IC50 (MDCK) is reported as 270 nM. For the same molecule, the IC50 (Jurkat) was less than 40 nM.
`C[C@]12CCC3=C(COC3=O)[C@@H]1C[C@@H]1O[C@@]13[C@H](O)[C@@]1(CCO)O[C@H]1[C@@H]1O[C@@]132` showed an IC50 (HCT-116) of 74.7 nM.
